“Also recorded” adds a separate entry of the source.
Experiments:
[1] = system: panel of 120 other receptors, channels and enzymes; assay: CEREP selectivity screen, binding and enzyme assays; settings: 10 μM
Description: The CEREP selectivity screen was performed on the following targets:
A1, A2A, A3, α1, α2, β1, β2, AT1, AT2, BZD central, BZD periph, BB, B2, CGRP, CB1, CCK1, CCK2, D1, D2S, D3, D4.4, D5, ETA, ETB, GABA, GAL1, GAL2, PDGF, CXCR2, CCR1, TNF- α, H1, H2, MC4, MT1, M1, M2, M3, M4, M5, NK1, NK2, NK3,Y1, Y2, NTS1(NT1), δ2, κ, µ, NOP(ORL1) , PAC1(PACAP), PPARγ, PCP, EP2, EP4, IP(PGI2,), P2X, P2Y,5-HT1A, 5-HT1B, 5-HT2A, 5-HT2B, 5-HT2C, 5-HT3, 5-HT5A, 5-HT6, 5-HT7, σ, sst, GR, ER, VPAC1(VIP1), V1a, Ca^2+ channel (L), KV channel, KV channel, SKCa channel, Na^+ channel, Cl^- channel, norepinephrine transporter. dopamine transporter, 5-HT transporter.
sPLA2, COX1, COX2, 5-lipoxygenase, 12-lipoxygenase, inducible NOS, PDE2A1, PDE3A, PDE4D2, PDE5, PDE6, ACE, ACE-2, BACE-2, ECE-1, elastase, caspase-3, caspase-8, cathepsin D, cathepsin L, neutral endopeptidase, MMP-1, MMP-3, MMP-9, tryptase, TACE, phosphatase 1B, phosphatase CDC25A, Scr kinase, acetylcholinesterase, MAO-A, MAO-B, CENP-E, Eg5, HDAC3, HDAC4, HMG-CoA reductase, HDAC11, surtuin-1, surtuin-2.

[2] = in vivo; settings: C57, mouse, iv, 1 mg/kg
Description: Blood was centrifuged to yield plasma for quantification of parent compound using UPLC-MS/MS. […] Terminal blood samples (approximately 300 μL) were subsequently taken by cardiac puncture under CO2 terminal anaesthesia. Once collected, blood samples were transferred to tubes containing 28 μL of citrate as anti-coagulant and held on ice, for <30 minutes, before centrifugation to generate plasma. Plasma samples aliquots (50 μL) were treated with four volumes of acetonitrile, containing diclofenac as analytical internal standard. Precipitated proteins were removed by centrifugation and the supernatant was analysed by UPLC-MS/MS. Pharmacokinetic parameters were determined by non-compartmental analysis using the software package PK Solutions 2.0 from Summit Research Services.

[3] = Stability and intrinsic clearance in cryopreserved hepatocytes; settings: dog
Description: (§2) Reactions were terminated by addition of 100 μL of acetonitrile containing carbamazepine as the analytical internal standard. Samples were centrifuged and the supernatant fractions analysed by LC-MS/MS. The instrument responses (peak heights) were referenced to the zero time-point samples (as 100%) in order to determine the percentage of compound remaining. Ln plots of the % remaining, for each compound, were used to determine the half-life for the hepatocyte incubations.

[4] = as above; settings: human
Description: as §2

[5] = target: T1, Cyp 450 2D6 (Homo sapiens, UniProt P10635); assay: Cytochrome P450 inhibition in human liver microsomes; assay type: in vitro ADME; settings: human liver microsomes
T1 construct: tissue Cyprotex (CRO); host or cells: human liver microsomes
Description: (§1) The five main cytochrome P450 isoforms (CYP1A, CYP2C9, CYP2C19, CYP2D6 and CYP3A4) were investigated in the P450 inhibition assay. […] At the end of the incubation, the formation of the metabolite was monitored by LC-MS/MS (or fluorescence in the case of CYP1A) at each of the test compound concentrations.

[6] = target: T2, Cyp 450 2C19 (Homo sapiens, UniProt P33261); assay: as above; assay type: in vitro ADME; settings: human liver microsomes
T2 construct: tissue Cyprotex (CRO); host or cells: human liver microsomes
Description: as §1

[7] = target: T3, Cyp 450 1A2 (Homo sapiens, UniProt P05177); assay: as above; assay type: in vitro ADME; settings: human liver microsomes
T3 construct: tissue Cyprotex (CRO); host or cells: human liver microsomes
T3 sequence (P05177 1-516): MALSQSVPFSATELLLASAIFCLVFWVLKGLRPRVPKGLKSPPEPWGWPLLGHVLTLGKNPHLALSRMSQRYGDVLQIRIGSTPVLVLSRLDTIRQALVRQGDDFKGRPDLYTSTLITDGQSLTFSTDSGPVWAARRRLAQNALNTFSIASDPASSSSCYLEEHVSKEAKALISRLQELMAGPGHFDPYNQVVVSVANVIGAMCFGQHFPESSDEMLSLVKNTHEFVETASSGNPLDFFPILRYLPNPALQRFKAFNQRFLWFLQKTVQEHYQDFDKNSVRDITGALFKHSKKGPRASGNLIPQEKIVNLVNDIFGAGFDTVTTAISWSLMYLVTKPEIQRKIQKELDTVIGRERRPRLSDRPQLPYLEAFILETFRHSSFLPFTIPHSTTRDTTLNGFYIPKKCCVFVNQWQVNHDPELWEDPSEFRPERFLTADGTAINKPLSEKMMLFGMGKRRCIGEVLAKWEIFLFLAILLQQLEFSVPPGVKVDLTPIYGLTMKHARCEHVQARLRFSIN
Description: as §1

[8] = target: T4, Cyp 450 3A4 (Homo sapiens, UniProt P08684); assay: as above; assay type: in vitro ADME; settings: human liver microsomes
T4 construct: tissue Cyprotex (CRO); host or cells: human liver microsomes
Description: as §1

[9] = target: T5, Cyp 450 2C9 (Homo sapiens, UniProt P11712); assay: as above; assay type: in vitro ADME; settings: human liver microsomes
T5 construct: tissue Cyprotex (CRO); host or cells: human liver microsomes
Description: as §1

[10] = system: HEPG2 cells; assay: High-content cell toxicity screen in HEPG2 cells; assay type: cell-based; settings: concentrations up to 50 μM
Description: Effect on the cell or mitochondrial viability markers in HepG2 cells were tested for compounds up to 50 μM. HepG2 cells were plated on 96-well tissue culture treated black walled clear bottomed polystyrene plates at 0:3 _ 104 cells in 100_L per well. After 24 hr the cells were dosed with the test compound at a range of concentrations (see Assay Summary for details). At the end of the incubation period, the cells were loaded with the relevant dye/antibody for each cell health marker. The plates were then scanned using an automated fluorescent cellular imager, ArrayScanr VTI (Thermo Scientific Cellomics).

[11] = Plasma protein binding, equilibrium dialysis; assay type: in vitro ADME
Description: Equilibrium dialysis is used to determine the extent of binding of a compound to plasma proteins. A semi-permeable membrane separates a protein-containing compartment from a protein-free compartment. The system is allowed to equilibrate at 37 °C. The test compound present in each compartment is quantified by LC-MS/MS. The extent of binding is reported as a fraction unbound (fu) value which is calculated as detailed below;
fu = 1 – (PC - PF /PC). PC = Test compound concentration in protein-containing compartment. PF = Test compound concentration in the protein-free compartment.

[12] = system: Salmonella Typhimurium (TA98, TA100, and TA1535); assay: Bacterial cytotoxicity; assay type: cell-based; settings: up to 100 μM; presence and absence of S9
Description: The results for cytotoxicity are expressed as percent of control growth (OD650). A compound with growth less than 60% of control is flagged and considered to be cytotoxic.

[13] = system: COS-7 cells; assay: Cytotoxicity assay (MTT) in COS-7 cells; assay type: cell-based; settings: 50-fold multiple of EC50
Description: Cytotoxicity Assay: COS-7 cells were plated out on 96 well plates at a density of 8000 cells per well. […] After two days an MTT assay (Promega) was carried out according to the manufacturer’s instructions

[14] = system: CHO-K1 cells; assay: In vitro micronucleus test; assay type: cell-based; settings: presence and absence of S9
Description: Fluorescent imaging was used to obtain the results in the micronucleus test.

T4 sequence (P08684 whole entry): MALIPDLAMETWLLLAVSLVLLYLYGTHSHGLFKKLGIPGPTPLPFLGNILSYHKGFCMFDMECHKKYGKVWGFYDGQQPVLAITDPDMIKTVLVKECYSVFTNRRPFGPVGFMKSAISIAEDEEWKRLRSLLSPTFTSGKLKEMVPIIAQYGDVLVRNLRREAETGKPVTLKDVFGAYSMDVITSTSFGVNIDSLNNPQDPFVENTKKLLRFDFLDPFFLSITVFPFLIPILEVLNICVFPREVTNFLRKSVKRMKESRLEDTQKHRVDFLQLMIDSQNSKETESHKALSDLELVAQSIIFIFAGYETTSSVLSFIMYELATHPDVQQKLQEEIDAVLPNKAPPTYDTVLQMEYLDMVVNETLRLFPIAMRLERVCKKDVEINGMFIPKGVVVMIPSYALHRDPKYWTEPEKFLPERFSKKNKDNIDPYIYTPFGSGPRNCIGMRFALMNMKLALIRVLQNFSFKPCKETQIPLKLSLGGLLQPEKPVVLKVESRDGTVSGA
T2 sequence (P33261 whole entry): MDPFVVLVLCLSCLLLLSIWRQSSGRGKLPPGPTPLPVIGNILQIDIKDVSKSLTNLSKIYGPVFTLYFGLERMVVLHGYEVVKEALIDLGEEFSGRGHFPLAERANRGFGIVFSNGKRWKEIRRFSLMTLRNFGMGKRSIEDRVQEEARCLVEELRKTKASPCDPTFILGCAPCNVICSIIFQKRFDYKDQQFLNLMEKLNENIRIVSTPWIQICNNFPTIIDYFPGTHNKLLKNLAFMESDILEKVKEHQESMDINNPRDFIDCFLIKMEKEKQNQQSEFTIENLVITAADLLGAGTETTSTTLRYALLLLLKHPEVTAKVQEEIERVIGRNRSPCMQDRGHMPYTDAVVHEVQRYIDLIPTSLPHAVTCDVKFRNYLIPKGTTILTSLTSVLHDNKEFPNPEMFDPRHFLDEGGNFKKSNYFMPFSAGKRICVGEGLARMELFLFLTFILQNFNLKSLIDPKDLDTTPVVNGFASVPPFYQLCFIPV
T1 sequence (P10635 whole entry): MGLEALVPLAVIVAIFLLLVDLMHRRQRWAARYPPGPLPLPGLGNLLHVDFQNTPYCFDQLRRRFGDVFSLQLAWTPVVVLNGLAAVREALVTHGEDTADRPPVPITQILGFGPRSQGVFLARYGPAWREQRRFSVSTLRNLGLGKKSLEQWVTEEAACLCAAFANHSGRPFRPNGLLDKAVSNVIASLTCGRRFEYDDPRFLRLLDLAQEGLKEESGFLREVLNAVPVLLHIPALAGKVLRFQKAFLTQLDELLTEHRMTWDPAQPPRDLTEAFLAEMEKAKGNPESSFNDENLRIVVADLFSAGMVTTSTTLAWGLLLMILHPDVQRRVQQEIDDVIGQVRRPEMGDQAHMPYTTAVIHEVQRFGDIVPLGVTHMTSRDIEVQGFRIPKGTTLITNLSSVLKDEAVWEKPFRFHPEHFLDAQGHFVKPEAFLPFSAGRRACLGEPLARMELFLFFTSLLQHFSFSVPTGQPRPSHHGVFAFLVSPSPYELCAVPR
T5 sequence (P11712 whole entry): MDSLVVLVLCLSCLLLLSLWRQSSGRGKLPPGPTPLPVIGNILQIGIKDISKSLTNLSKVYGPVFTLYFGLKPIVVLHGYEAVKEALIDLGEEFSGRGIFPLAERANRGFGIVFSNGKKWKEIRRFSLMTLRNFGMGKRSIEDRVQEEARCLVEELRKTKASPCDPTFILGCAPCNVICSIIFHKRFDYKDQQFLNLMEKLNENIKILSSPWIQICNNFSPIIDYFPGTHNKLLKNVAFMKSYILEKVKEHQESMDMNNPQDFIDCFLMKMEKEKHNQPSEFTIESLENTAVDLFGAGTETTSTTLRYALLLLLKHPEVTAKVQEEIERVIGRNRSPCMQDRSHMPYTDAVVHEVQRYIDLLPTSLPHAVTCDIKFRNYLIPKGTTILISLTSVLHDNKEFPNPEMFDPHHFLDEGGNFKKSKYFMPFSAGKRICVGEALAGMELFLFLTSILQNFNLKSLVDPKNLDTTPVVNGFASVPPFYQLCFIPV

For `CCOc1c(Cl)cc(C(=O)Nc2ccc(C(=O)O)c(C)c2)cc1OC(C)C` [Compound 56, 4-(3-Chloro-4-ethoxy-5-isopropoxybenzamido)-2-methylbenzoic acid], the “interactions with panel of 120 receptors, channels and enzymes” value [1] was “no significant interactions”, the “inhibition (or stimulation), all panel targets” value ([1]; two independent experiments) was at most 25% and the Vd [2] was 0.3 L/kg. The clearance [2] was 4.7 mL/min/kg, the half-life at 1 μM [3] was over 7.5 h and the half-life at 30 μM [3] was over 7.5 h. It also gave a hepatocyte CLint at 1 μM [3] of under 3 µL/min/1e6 cells, a hepatocyte CLint at 30 μM [3] of under 3 µL/min/1e6 cells and a half-life at 1 μM [4] of over 7.5 h. It also gave a half-life at 30 μM [4] of over 7.5 h, a hepatocyte CLint at 1 μM [4] of under 3 µL/min/1e6 cells and a hepatocyte CLint at 30 μM [4] of under 3 µL/min/1e6 cells. It also gave an IC50 [5] of over 25 µM, an IC50 [6] of over 25 µM and an IC50 [7] of over 25 µM. For the same molecule, the IC50 [8] was over 25 µM, the IC50 [9] was over 25 µM and the “effect on cell or mitochondrial viability markers” value [10] was “no effect”. The fraction unbound ([11]; human) was 0.07, the fraction unbound ([11]; mouse) was 0.09 and the bacterial cytotoxicity tests [12] was “negative”. For the same molecule, the “cytotoxicity in COS-7 cells” value [13] was “no cytotoxicity; also recorded: not cytotoxic” and the “in vitro micronucleus test” value [14] was “negative”.
